Reference: article PMC6973020, “Quinoline‐Conjugated Ruthenacarboranes: Toward Hybrid Drugs with a Dual Mode of Action” (Chemmedchem, 2019)

Experiments:
[1] = Ester hydrolysis in PBS/DMSO at pH 7.4 (time‐resolved UV‐vis); type: physicochemical; settings: PBS/DMSO (1 vol%), 20 μM
Excerpt: Following our recent investigations on the self‐assembly behavior of ruthenacarborane complexes in aqueous solutions at physiologic pH,9, 10 the behavior of free acid 3 and ester 4 in aqueous solution was studied via UV‐vis spectroscopy and Nanoparticle Tracking Analysis (NTA) in phosphate‐buffered saline (PBS)/DMSO mixtures (pH 7.4). UV‐vis spectroscopy is a useful tool to follow the ester hydrolysis over time, when a UV‐(vis)‐active chromophore is present (in the case of 4, the quinoline ring). Experiments were carried out at room temperature (23 and 25 °C, for UV‐vis and NTA, respectively), to simulate the conditions of the working solutions used for cell cultures, and at 37 °C (UV‐vis), to simulate the conditions of incubation of cells.
UV‐vis spectroscopy. Stock solutions of 3, 4 and 8‐hydroxyquinoline (8‐HQ) in distilled DMSO were freshly prepared before use ([3]=2.11 mM; [4]=6.56 mM; [8‐HQ]=25.76 mM). An aliquot of the DMSO stock solution of 3, 4 or 8‐HQ was added to 3 mL PBS solution, so that the final concentration was 20 μM. DMSO content was adjusted to 1 vol % (considering the amount of DMSO from the stock solutions) before addition of the ruthenacarborane, in all samples. Time‐resolved UV‐vis spectra of 4 were measured, over a period of 26 h at room temperature (23±1 °C) and at 37±0.3 °C to follow hydrolysis of the ester bond of 4 at physiologic pH (7.4). PBS/DMSO solutions of 3 and 8‐HQ were also measured, as references. All measurements were corrected by subtracting the blank (PBS+1 vol % DMSO). Experiments were run in duplicate.

[2] = system: LN229 cells; assay: CFSE staining, flow cytometry, LN229; type: cell-based, human; settings: LN229, 40 μM, 72 h
Protocol: Flow cytometry. For gaining better insights into the mechanisms of action of the ruthenium complexes, MCF‐7 and LN229 cells incubated with an IC50 dose of 3 or 4, were analyzed via flow cytometry. Several staining protocols were carried out in parallel, in independent experiments: i) AnnV/PI for the detection of apoptotic cell death, ii) AO for the detection of acidic vacuoles, iii) ApoStat for checking caspase activation, iv) CFSE for detecting interference with cellular proliferation, and v) DAPI for the detection of morphological signs of apoptosis. Untreated cells or cells treated only with BSA (control) were also measured, as reference for BSA‐free and BSA‐containing drug formulations, respectively. […] Channels FL1 (green emission), FL2 (orange emission) and/or FL3 (dark red emission) were used for fluorescence detection, according to the specific staining agent. Sideward Scatter (SSC) for MCF‐7 cells treated with 4 or BSA−4 was also analyzed, with respect to the control, for detection of shifts of cell granularity. […]
Staining Protocols for Flow Cytometric Analysis. […] Finally, cells were washed in PBS, resuspended in PBS (or AnnV‐binding buffer for AnnV/PI), and analysed. […] Cells were then washed, trypsinised, dissolved in PBS and analysed by CyFlow® Space Partec using the PartecFloMax® software (Partec GmbH, Münster, Germany). […]

In the case of “closo ‐[3‐(η^6‐p‐Cymene)‐1‐(quinolin‐8‐yl‐acetate)‐3,1,2‐RuC2B9H10] [Compound 4]”, the “time after which hydrolysis is pronounced” value ([1]; pH 7.4, 23 °C) is reported as 5 h, the “time to complete hydrolysis of the ester bond” value ([1]; pH 7.4, 23 °C) is reported as 23 h and the “time to complete hydrolysis of the ester bond” value ([1]; pH 7.4, 37 °C) is reported as 2.5 h. For the same substance, the “cellular proliferation (CFSE staining)” value [2] was “strong inhibition of cellular proliferation”.
